Where two headings read alike, the source gives them in different places.
Legend:
[1] = Dynamic Vapour Sorption (DVS) analysis; format: physicochemical; details: for kinetic stability: on the DVS timescale
Protocol: Analytical Instrument: Surface Measurements Systems Dynamic Vapour Sorption Analyser, calibrated with a saturated salt solution, such as sodium chloride.
About 5 mg of material contained in a quartz holder at a specified temperature was subjected to humidified nitrogen at a flow rate of 200 ml/minute of nitrogen at the following relative humidities (RH): 0, 20, 40, 60, 80, 95, 80, 60, 40, 20, 0% RH in duplicate.
The weight of the material at a particular relative humidity was constantly monitored using an in-situ balance until it was stable according to a weight criteria of 0.002% weight change per minute averaged over 10 minutes. If the weight was still changing then it stayed at a particular relative humidity until the weight was stable (up to a maximum time of 12 hours).

[2] = test system: femoral epiphyseal growth plates; details: 100 mg/kg/day in female rats, 14 days oral; p<0.001 (one-tailed Students' t-test); cited from earlier work
[3] = test system: CaLu-6 tumour xenografts; details: 50 mg/kg, orally once daily; CaLu-6 xenografts in mice; p<0.001 (Mann-Whitney Rank Sum Test); cited from earlier work
[4] = test system: human umbilical vein endothelial cells (HUVEC); details: as disclosed in WO 01/32651, cited from earlier work

| rate of weight loss on storage ([1]; 0% relative humidity at 25° C., once surface moisture has been removed) | rate of weight loss on storage ([1]; 0% relative humidity at 40° C.) | hygroscopicity by DVS ([1]; 25° C.) | conversion to the anhydrous form of ZD6474 during drying ([1]; 25° C. and 0% relative humidity) | kinetic stability [1] | water absorbed ([1]; at 95% relative humidity, 25° C.) [% weight/weight] | Compound | increase in epiphyseal growth plate hypertrophy [2] [%] | inhibition of tumour growth [3] [%] | IC50 ([4]; EGF-stimulated HUVEC proliferation, read-out: EGF IC50) [µM] | IC50 ([4]; VEGF-stimulated HUVEC proliferation, read-out: VEGF IC50) [µM] | IC50 ([4]; basal HUVEC proliferation, read-out: Basal IC50) [µM] |
| --- | --- | --- | --- | --- | --- | --- | --- | --- | --- | --- | --- |
| extremely slow | surprisingly slow | non-hygroscopic | less than 5% | kinetically stable | – | COc1cc2c(Nc3ccc(Br)cc3F)ncnc2cc1OCC1CCN(C)CC1 [ZD6474 monohydrate, 4-(4-bromo-2-fluoroanilino)-6-methoxy-7-(1-methylpiperidin-4-ylmethoxy)quinazoline] | – | – | – | – | – |
| – | – | – | – | – | – | COc1cc2c(Nc3ccc(Br)cc3F)ncnc2cc1OCC1CCN(C)CC1 [ZD6474, 4-(4-bromo-2-fluoroanilino)-6-methoxy-7-(1-methylpiperidin-4-ylmethoxy)quinazoline] | 75 | 78 | 0.17 | 0.06 | > 3 |
| – | – | non-hygroscopic | – | kinetically stable | 0.63 | COc1cc2c(Nc3ccc(Br)cc3F)ncnc2cc1OCC1CCN(C)CC1 [ZD6474 anhydrous, 4-(4-bromo-2-fluoroanilino)-6-methoxy-7-(1-methylpiperidin-4-ylmethoxy)quinazoline] | – | – | – | – | – |
